Laboratory results published in ChEMBL document CHEMBL1201862, “PubChem BioAssay data set” (2004).
Activity calls are given as the source filed them.

Columns and labels:
[1] = Luminescence-based cell-based high throughput dose response assay to identify activators of the DAF-12 from the parasite S. stercoralis (ssDAF-12).; assay type: functional
[2] = target: T1, Oxysterols receptor LXR-beta (Homo sapiens, UniProt P55055); experiment: LXR agonists, Gal4 luciferase reporter, dose response, counter-screen for ssDAF-12 agonist project, cell-based, luminescence, HEK293, S. stercoralis campaign (AID 720737); assay type: functional; details: read-out: IC50 (the source's name)
T1 sequence (P55055 whole entry): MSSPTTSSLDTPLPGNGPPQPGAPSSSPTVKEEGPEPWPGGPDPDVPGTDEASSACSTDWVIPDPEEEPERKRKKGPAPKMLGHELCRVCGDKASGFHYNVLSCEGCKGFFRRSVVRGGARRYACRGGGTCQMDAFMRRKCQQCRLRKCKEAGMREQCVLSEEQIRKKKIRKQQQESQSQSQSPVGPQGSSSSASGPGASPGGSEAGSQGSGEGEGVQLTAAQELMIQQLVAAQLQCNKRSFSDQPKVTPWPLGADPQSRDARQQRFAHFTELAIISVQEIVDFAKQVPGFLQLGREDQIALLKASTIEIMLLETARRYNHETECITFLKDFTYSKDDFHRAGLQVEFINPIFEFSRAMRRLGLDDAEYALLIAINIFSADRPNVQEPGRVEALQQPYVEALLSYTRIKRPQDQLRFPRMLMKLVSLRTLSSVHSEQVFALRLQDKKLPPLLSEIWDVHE

[3] = OVCAR-3 cell viability loss – plate reader, dry powder samples, PAX8 inhibitor project, dose response (AID 743044); assay type: functional, cell-based
Paired box protein Pax-8 = Paired box protein Pax-8 (Homo sapiens, UniProt Q06710); experiment: PAX8 transcriptional activity inhibition in RMG-I – RMG-I cells, luciferase, cherry-pick, dose response (AID 687027); assay type: functional, cell-based;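 note: luciferase reporter driven by Pax8 target thyroperoxidase promoter measured by SteadyGlo luminescence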
Sequence of Paired box protein Pax-8 (Q06710 whole entry): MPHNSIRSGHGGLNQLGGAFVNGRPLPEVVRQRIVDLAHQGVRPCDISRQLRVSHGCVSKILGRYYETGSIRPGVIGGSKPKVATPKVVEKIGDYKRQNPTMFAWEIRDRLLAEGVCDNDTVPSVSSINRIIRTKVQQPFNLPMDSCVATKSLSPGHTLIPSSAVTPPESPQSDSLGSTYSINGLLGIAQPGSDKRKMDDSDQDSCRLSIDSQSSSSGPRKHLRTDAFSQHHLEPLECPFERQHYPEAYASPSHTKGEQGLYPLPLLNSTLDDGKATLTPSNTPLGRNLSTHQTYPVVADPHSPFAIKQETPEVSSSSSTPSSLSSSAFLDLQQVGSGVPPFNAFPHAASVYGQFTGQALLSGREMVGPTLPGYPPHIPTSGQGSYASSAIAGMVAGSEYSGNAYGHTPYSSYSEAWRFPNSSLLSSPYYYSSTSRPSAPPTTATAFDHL

[4] = OVCAR8 cell viability loss – plate reader, dry powder samples, PAX8 project, dose response (AID 743197); assay type: functional, cell-based; details: OVCAR-8
[5] = A2780 cell killing – plate reader, dry powder samples, cytotoxicity control, dose response (AID 743046); assay type: functional, cell-based
[6] = M. tuberculosis H37Rv growth inhibitors, H37Rv strain (AID 1626); assay type: functional
Prothrombin = Prothrombin (Homo sapiens, UniProt P00734); experiment: Thrombin 1536 HTS Dose Response Confirmation. [Related pubchem assays: 1046 (Thrombin 1536 HTS; hits were confirmed in this assay)]; assay type: functional
[7] = target: T2, Corticotropin-releasing factor receptor 2/Corticotropin-releasing factor-binding protein (Homo sapiens, UniProt P24387+Q13324); experiment: activators of CRF receptor 2 with binding protein – uHTS hits, confirmation (AID 602473); assay type: functional; details: read-out: EC50_Mean
T2 sequence (Q13324 whole entry): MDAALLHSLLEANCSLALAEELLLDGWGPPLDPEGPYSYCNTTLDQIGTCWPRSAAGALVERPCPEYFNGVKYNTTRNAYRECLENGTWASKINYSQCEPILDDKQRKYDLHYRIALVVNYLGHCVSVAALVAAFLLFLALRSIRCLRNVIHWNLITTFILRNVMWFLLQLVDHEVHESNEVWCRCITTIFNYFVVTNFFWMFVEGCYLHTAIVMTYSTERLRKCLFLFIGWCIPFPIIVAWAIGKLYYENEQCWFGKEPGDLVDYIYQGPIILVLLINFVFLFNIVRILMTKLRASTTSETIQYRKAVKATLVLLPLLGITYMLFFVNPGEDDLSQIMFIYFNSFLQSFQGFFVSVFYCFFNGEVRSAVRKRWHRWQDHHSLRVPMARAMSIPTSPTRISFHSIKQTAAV
T2 sequence (P24387 whole entry): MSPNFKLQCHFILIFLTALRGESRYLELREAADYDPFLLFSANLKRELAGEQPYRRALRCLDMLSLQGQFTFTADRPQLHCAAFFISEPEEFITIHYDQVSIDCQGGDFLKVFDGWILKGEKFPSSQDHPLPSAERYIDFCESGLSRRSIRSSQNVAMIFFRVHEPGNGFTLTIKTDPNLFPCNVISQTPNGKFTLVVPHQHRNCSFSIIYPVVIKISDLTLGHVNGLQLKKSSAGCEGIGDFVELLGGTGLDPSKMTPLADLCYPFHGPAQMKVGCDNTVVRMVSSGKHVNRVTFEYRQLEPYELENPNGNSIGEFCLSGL

Vero = experiment: mammalian cell viability reduction – secondary assay, cytotoxicity control for West Nile virus antiviral project, dose response (AID 1650); assay type: functional; details: Chlorocebus sabaeus
[8] = target: T2, Corticotropin-releasing factor receptor 2/Corticotropin-releasing factor-binding protein; experiment: Dose Response confirmation of uHTS hits for small molecule antagonists of the CRF-binding protein and CRF-R2 receptor complex.; assay type: functional; details: read-out: IC50_Mean
[9] = Dd2 parasite growth inhibition in erythrocytes – SYBR Green, dry powder samples, set 9, dose response (AID 1159568); assay type: functional, cell-based
Kallikrein-7 = Kallikrein-7 (Homo sapiens, UniProt P49862); experiment: Fluorescence Intensity-based biochemical primary high throughput dose response assay to identify activators of kallikrein-7 (K7) zymogen.
Sequence of Kallikrein-7 (P49862 whole entry): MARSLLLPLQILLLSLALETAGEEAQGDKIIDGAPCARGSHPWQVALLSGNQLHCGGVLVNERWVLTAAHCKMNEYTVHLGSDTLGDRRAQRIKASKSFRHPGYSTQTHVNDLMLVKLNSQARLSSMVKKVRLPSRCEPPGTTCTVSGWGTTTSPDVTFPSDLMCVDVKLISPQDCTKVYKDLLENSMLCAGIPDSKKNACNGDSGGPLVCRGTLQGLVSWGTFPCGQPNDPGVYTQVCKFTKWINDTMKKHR

Cytochrome P450 3A4 [10] = target: T3, Cytochrome P450 3A4 (Homo sapiens, UniProt P08684); details: Potency
T3 sequence (P08684 whole entry): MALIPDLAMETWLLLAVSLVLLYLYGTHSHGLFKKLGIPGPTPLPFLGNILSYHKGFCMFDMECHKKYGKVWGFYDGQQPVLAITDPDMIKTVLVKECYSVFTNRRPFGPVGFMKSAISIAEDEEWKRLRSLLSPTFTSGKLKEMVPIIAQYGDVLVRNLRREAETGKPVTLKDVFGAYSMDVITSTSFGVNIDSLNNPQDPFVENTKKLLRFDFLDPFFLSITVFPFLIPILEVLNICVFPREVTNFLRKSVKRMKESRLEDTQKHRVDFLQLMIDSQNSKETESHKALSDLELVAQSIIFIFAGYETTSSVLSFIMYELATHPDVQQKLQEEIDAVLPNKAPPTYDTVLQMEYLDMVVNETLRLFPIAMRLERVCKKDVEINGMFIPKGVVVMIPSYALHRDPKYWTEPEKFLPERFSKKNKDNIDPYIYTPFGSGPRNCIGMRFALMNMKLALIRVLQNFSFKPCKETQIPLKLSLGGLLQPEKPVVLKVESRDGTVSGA

[11] = target: Luciferin 4-monooxygenase (Photinus pyralis, UniProt P08659); experiment: Counter Screen for Luciferase-based Assay Positives. [Related pubchem assays: 620, 618, 411 ]
Sequence of Luciferin 4-monooxygenase (P08659 whole entry): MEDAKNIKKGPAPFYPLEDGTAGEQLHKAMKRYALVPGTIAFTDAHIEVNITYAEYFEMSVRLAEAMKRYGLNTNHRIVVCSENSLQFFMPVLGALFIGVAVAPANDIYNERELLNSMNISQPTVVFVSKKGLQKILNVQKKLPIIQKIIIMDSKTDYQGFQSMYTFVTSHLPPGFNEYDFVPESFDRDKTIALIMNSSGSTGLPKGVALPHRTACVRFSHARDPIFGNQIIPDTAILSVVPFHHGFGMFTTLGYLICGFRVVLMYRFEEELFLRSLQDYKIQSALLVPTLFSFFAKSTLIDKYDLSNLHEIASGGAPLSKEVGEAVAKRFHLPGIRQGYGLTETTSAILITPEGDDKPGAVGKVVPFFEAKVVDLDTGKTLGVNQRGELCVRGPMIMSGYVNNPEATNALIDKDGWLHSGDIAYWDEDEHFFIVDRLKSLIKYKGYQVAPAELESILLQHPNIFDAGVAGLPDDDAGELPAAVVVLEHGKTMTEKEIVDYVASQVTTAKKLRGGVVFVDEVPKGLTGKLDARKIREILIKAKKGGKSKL

cells [12] = experiment: cells
[13] = target: T1, Oxysterols receptor LXR-beta; assay type: functional, cell-based
HT-1080 = experiment: HT1080 cell viability loss – fluorescence readout (AID 620); assay type: functional, cell-based; details: Homo sapiens
[14] = target: Heat shock protein HSP 90-alpha (Homo sapiens, UniProt P07900); assay type: functional, organism-based
[15] = HPDE-C7 pancreatic duct cell viability loss – fluorescence, HTS (AID 430); assay type: functional, cell-based; details: Homo sapiens
[16] = target: Mitogen-activated protein kinase 10 (Homo sapiens, UniProt P53779); experiment: Dose response biochemical screening assay for inhibitors of c-Jun N-Terminal Kinase 3 (JNK3). [Related pubchem assays: 746 ]
Sequence of Mitogen-activated protein kinase 10 (P53779 whole entry): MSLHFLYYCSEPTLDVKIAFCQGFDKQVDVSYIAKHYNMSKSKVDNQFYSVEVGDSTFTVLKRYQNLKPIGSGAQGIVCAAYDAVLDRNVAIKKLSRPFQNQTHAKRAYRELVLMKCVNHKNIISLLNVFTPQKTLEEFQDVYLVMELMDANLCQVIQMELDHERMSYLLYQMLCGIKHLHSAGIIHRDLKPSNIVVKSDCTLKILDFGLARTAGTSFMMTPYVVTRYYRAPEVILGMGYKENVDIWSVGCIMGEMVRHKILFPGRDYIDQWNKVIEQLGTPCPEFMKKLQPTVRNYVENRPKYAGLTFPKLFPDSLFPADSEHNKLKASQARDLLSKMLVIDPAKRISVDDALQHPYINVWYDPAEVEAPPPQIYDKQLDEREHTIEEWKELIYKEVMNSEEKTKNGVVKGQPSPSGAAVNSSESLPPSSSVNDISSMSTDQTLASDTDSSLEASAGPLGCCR

[17] = viability loss of HPDE-C7K cells – cell-based, fluorescence, HTS, primary screen (AID 431); assay type: functional; details: Homo sapiens
[18] = target: FAD-linked sulfhydryl oxidase ALR (Homo sapiens, UniProt P55789); experiment: ALR-catalysed DTT oxidation blockers – biochemical, H2O2 detection, luminescence, cherry-pick, dose response (AID 493248)
Sequence of FAD-linked sulfhydryl oxidase ALR (P55789 whole entry): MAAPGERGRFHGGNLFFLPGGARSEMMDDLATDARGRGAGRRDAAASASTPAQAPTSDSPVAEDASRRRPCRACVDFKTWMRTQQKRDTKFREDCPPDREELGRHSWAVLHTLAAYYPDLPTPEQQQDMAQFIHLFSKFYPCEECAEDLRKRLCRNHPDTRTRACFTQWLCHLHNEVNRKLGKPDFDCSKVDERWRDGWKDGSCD

[19] = target: T4, Alkaline phosphatase, tissue-nonspecific isozyme (Homo sapiens, UniProt P05186)
T4 sequence (P05186 whole entry): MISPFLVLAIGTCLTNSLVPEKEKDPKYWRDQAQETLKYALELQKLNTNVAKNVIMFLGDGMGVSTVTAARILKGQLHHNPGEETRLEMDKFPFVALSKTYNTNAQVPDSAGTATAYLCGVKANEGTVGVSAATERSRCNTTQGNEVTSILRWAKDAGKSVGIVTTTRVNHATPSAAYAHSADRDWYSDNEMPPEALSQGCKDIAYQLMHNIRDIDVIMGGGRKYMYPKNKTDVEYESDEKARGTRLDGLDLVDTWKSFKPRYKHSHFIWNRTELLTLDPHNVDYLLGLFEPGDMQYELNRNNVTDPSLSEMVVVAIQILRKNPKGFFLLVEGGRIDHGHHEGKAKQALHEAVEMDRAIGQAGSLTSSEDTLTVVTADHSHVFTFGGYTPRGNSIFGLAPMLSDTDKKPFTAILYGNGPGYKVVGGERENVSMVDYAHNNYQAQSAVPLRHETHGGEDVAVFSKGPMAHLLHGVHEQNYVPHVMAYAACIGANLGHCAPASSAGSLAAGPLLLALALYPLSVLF

[20] = A Cell Based Secondary Assay To Explore Cytotoxicity of Compounds that Sensitize Mycobacterium Tuberculosis to Beta-Lactam Antibiotics.; assay type: functional
Vasopressin V1b receptor = Vasopressin V1b receptor (Homo sapiens, UniProt P47901); experiment: Late-stage results from the probe development effort to identify antagonists of arginine vasopressin receptor 1a (AVPR1a): fluorescence-based cell-based dose response AVPR1b inhibition counterscreen assay.; assay type: functional
Sequence of Vasopressin V1b receptor (P47901 whole entry): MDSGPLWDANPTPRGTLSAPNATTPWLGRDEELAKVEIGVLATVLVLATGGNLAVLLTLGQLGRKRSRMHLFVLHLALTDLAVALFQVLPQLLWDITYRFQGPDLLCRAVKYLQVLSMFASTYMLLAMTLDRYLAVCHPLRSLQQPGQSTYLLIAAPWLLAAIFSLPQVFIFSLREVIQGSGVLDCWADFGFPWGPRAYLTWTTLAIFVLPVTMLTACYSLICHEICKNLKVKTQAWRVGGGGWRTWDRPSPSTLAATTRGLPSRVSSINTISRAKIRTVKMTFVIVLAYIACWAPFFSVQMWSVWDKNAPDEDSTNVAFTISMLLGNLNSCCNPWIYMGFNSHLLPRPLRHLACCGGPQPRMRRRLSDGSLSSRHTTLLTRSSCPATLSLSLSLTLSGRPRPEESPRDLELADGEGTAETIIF

Vasopressin V2 receptor = Vasopressin V2 receptor (Homo sapiens, UniProt P30518); experiment: Late-stage results from the probe development effort to identify antagonists of arginine vasopressin receptor 1a (AVPR1a): fluorescence-based cell-based dose response AVPR2 inhibition counterscreen assay.; assay type: functional
Sequence of Vasopressin V2 receptor (P30518 whole entry): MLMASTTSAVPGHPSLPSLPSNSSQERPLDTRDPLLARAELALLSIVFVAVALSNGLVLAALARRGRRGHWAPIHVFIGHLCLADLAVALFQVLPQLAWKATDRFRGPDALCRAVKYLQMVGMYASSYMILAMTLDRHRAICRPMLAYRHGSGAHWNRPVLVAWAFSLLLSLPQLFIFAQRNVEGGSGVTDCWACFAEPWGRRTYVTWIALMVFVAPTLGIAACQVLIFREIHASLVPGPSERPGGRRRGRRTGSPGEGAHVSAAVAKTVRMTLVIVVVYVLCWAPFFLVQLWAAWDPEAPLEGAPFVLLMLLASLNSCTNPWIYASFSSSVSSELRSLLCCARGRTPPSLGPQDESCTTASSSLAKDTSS

[21] = Late-stage results from the probe development effort to identify antagonists of arginine vasopressin receptor 1a (AVPR1a): fluorescence-based cell-based dose response AVPR1a inhibition assay.; assay type: functional
[22] = Late-stage results from the probe development effort to identify antagonists of arginine vasopressin receptor 1a (AVPR1a): fluorescence-based cell-based dose response OXTR inhibition counterscreen assay.; assay type: functional
[23] = target: Voltage-gated inwardly rectifying potassium channel KCNH2 (Homo sapiens, UniProt Q12809); experiment: concentration-dependent hERG rescue from blockers – cell-based, thallium flux, dose response (AID 2121); assay type: ADME
Sequence of Voltage-gated inwardly rectifying potassium channel KCNH2 (Q12809 whole entry): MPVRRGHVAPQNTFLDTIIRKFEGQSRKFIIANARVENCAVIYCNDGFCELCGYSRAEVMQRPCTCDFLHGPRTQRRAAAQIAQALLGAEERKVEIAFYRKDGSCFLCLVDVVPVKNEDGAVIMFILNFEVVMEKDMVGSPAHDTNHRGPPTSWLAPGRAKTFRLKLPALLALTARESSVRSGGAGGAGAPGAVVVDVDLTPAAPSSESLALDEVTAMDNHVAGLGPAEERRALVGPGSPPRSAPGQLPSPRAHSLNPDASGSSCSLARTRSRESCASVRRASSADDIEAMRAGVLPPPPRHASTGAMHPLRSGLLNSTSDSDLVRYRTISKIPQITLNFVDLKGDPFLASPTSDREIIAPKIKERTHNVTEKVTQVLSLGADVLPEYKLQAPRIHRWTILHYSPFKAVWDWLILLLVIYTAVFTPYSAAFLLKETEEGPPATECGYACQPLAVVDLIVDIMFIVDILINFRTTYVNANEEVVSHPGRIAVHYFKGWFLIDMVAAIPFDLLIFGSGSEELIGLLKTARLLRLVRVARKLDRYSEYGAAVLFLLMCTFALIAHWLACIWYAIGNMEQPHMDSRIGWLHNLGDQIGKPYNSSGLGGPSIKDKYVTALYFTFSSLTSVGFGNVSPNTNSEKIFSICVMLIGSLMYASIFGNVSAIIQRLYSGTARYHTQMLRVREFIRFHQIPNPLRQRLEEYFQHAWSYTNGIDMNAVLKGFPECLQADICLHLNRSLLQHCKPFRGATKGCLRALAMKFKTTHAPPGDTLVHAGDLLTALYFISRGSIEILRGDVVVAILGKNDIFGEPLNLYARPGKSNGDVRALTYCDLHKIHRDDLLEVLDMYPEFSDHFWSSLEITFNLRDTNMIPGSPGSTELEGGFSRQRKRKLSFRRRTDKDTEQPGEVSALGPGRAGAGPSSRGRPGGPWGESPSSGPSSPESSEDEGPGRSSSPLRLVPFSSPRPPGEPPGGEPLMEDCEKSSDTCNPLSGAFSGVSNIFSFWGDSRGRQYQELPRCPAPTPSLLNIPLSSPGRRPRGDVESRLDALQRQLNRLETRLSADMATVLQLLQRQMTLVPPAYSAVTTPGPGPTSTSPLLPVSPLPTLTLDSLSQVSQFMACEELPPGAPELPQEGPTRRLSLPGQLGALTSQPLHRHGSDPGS

HeLa = experiment: viability loss in HeLa cells – cell-based, 24 h, cherry-picked samples, cytotoxicity control, dose response (AID 504726); assay type: functional; details: Homo sapiens;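 note: potency for cytotoxicity as loss of luminescence signal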
[24] = viability of PTEN-deleted HCT116 cells – cell-based, HCT116 PTEN knockout, dose response (AID 1047); assay type: functional;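 note: HCT116 colon tumor cells with PTEN knocked out; cells exposed to compound for 60 hours before readout; potency for loss of cell viability measured by luminescence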
[25] = viability of HCT116 lacking mutant beta-catenin – cell-based, human colon tumor, dose response (AID 1045); assay type: functional;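 note: HCT116 colon tumor cells with beta catenin knocked out; cells exposed to compound for 60 hours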
Cytochrome P450 3A4 [26] = target: T3, Cytochrome P450 3A4
Cytochrome P450 2D6 = Cytochrome P450 2D6 (Homo sapiens, UniProt P10635);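 note: CYP2D6 member of a cytochrome P450 panel assay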
Sequence of Cytochrome P450 2D6 (P10635 whole entry): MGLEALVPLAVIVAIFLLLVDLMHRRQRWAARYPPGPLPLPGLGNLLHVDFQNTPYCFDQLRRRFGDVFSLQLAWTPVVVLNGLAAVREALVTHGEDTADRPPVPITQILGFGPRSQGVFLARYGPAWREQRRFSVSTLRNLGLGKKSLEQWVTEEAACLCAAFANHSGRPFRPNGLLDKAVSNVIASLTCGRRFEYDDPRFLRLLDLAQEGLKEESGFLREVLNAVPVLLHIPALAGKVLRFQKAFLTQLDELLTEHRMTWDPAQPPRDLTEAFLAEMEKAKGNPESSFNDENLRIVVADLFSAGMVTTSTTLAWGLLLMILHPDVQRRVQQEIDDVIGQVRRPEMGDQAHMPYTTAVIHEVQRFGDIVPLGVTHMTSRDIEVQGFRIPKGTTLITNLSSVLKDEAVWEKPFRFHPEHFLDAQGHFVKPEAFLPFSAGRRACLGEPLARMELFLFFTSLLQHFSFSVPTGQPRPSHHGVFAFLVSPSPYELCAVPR

cells [27] = assay type: functional, cell-based
cells [28] = assay type: functional, cell-based; remark: listed apart in the source

COc1ccc(Nc2nc(N)nc(CSC(=S)N3CCN(C)CC3)n2)cc1
IC50 [1]: > 67.6 µM (inactive)
EC50 [2]: > 67.6 µM (inactive)

C[C@@H]1CCCCO[C@@H](CN(C)Cc2ccc(C(F)(F)F)cc2)[C@H](C)CN([C@H](C)CO)C(=O)c2cc(NC(=O)Nc3ccccc3)ccc2O1
AC50 [3]: 28.1 µM (active)
AC50 (Paired box protein Pax-8): 4.86 µM (active)
AC50 [4]: 36 µM (active)
AC50 [5]: 57 µM (active)

COc1ccc2ncc(OC(C)=O)cc2c1
IC50 [6]: > 100 µM (active)
IC50 (Prothrombin): 3.24 µM (active)

COC(=O)C1C(c2ccccc2)C(C(=O)OCc2ccco2)C1c1ccccc1 (configuration not stated)
EC50 [7]: > 53 µM (inactive)
CC50 (Vero): 30.1 µM (active)
IC50 [8]: > 47.1 µM (inactive)

COc1ccccc1-c1ccc2c(c1)[C@@H]1[C@@H](CCN1C(=O)C1CCC1)[C@H](CO)N2
AC50 [9]: 2.92 µM (active)

Cc1cccc(C(=O)/N=c2/c(C#N)cc3c(=O)n4cccc(C)c4nc3n2Cc2ccco2)c1
EC50 (Kallikrein-7): 65.6 µM (inactive)

COC(=O)c1ccc(C23CC4(C2)[C@H](CN(C)[C@@H]4c2ccccc2)C3c2ccc(Cl)nc2)cc1 (some centres not stated)
AC50 (Cytochrome P450 3A4 [10]): 20 µM (inconclusive)

Cc1ccc(-c2nc3cc(C)ccc3o2)cc1
EC50 [11]: 1.59 µM (active)
EC50 (cells [12]): > 67.5 µM (inactive)
EC50 [13]: > 67.5 µM (inactive)
EC50 (HT-1080): > 50 µM (not active)

Clc1ccc2[nH]c3c(c2c1)CCc1c[nH]nc1-3
AC50 [14]: 7.8 µM (active)
EC50 [15]: 15 µM (active)
IC50 [16]: 2.16 µM (active)
EC50 [17]: 18.1 µM (active)
AC50 [18]: 0.129 µM (active)

CCCNC(=O)N1[C@H](C#N)[C@H](c2ccccc2C2=CCCCC2)[C@@H]1CO
AC50 [9]: 7.06 µM (active)

Cc1ccc(/C=N/Nc2cccc3cccnc23)c(O)c1
EC50 [19]: > 100 µM (not active)

Nc1c2c(nc3sc4c(c13)CCCC4)-c1ccccc1CC2
EC50 (cells [12]): > 67.5 µM (inactive)
CC50 [20]: > 40 µM (active)
EC50 [13]: > 67.5 µM (inactive)

CC(=O)Nc1cccc(-c2nc3ccccc3c(=O)o2)c1
IC50 [16]: 41.9 µM (not active)

N#Cc1cccnc1N1CCN(C(=O)N(CC2CC2)c2ccc(Cl)cc2)CC1
IC50 (Vasopressin V1b receptor): > 50 µM (inactive)
IC50 (Vasopressin V2 receptor): > 50 µM (inactive)
IC50 [21]: 0.0806 µM (active)
IC50 [22]: > 50 µM (inactive)

O=C(COc1ccccc1Cl)NC(=S)Nc1ccccc1N1CCCC1
EC50 [23]: 1.56 µM (active)

CC(=O)O[C@](C)(CCC=C(C)C)C1CC=C(C)CC1 (some centres not stated)
AC50 (Cytochrome P450 3A4 [10]): 31.6 µM (inconclusive)

CN(C)c1ccc(/C=C/C(=O)c2ccc(O)cc2)cc1[N+](=O)[O-]
AC50 (HeLa): 51.7 µM (active)

C=CCn1/c(=N/C(=O)c2ccc(S(=O)(=O)N3CCc4ccccc4C3)cc2)sc2cc(S(N)(=O)=O)ccc21
EC50 (Kallikrein-7): > 69.5 µM (inactive)
EC50 [24]: 5.77 µM (active)
EC50 [25]: 4.56 µM (active)

Cc1cccnc1N1CCC(C(=O)N(CC2CC2)c2ccc(Cl)cc2)CC1
IC50 (Vasopressin V1b receptor): 12.6 µM (inactive)
IC50 (Vasopressin V2 receptor): 15.7 µM (inactive)
IC50 [21]: 0.0075 µM (active)
IC50 [22]: 2.6 µM (active)

Cc1cc([N+](=O)[O-])nn1CC(=O)NN=C(S)Nc1ccc(F)cc1
EC50 [19]: 55.5 µM (not active)
AC50 (Cytochrome P450 3A4 [26]): 22.4 µM (inconclusive)
AC50 (Cytochrome P450 2D6): 0.00562 µM (inconclusive)

C[C@@H]1CN([C@H](C)CO)C(=O)c2cc(NC(=O)Cc3ccccc3)ccc2O[C@@H](C)CCCCO[C@@H]1CN(C)Cc1ccc(C(F)(F)F)cc1
AC50 [3]: 17.5 µM (active)
AC50 (Paired box protein Pax-8): 7.22 µM (active)
AC50 [4]: 43.2 µM (active)

COc1ccc(/N=C2/C(=O)N3CCCc4cccc2c43)cc1
EC50 (cells [27]): > 350 µM (not active)
EC50 (cells [28]): > 350 µM (not active)
IC50 [6]: > 100 µM (active)
